Results: patent publication US20240336595A1, “BIFUNCTIONAL COMPOUNDS FOR DEGRADING BTK WITH DIMINISHED IMID ACTIVITY” (NURIX THERAPEUTICS, INC., priority 2021, published 2024)

Columns and labels:
[1] = test system: Aiolos; experiment: IMiD activity: Aiolos degradation in PBMCs by flow cytometry; assay type: cell-based; settings: human PBMCs, 24 hours; for Dmax: maximum percent Aiolos degradation in the assay; for DC50: compound concentration degrading 50% of Aiolos
Protocol: In addition, Compounds 1-24 were assayed for IMiD activity. Frozen human peripheral blood mononuclear cells (PBMCs) were thawed and treated with DMSO or compound for 24 hours and then fixed and permeabilized using a Foxp3/Transcription Factor Fixation/Permeabilization Kit (eBioscience, 00-5523). Cells were stained with fluorophore-conjugated antibodies against CD20 (Biolegend 302330), CD3 (BD Pharmingen 552127), and Aiolos (Biolegend 371106). An additional set of DMSO-treated PBMCs was stained for CD20, CD3, and an AlexaFluor 647-conjugated mouse IgG1 isotype control antibody (Biolegend 400136). Stained cells were run on an Attune NxT Acoustic Focusing Flow Cytometer (Thermo-Fisher A29004), and data was analyzed using FlowJo (v10.5.3) and GraphPad Prism (v7.00) software. Single lymphocytes were gated for B cells (CD20+CD3-) and T cells (CD3+CD20-), and the geometric mean fluorescence intensity (MFI) of Aiolos was calculated for each population. The MFI of the isotype control was calculated for each population and used to quantify background staining. Percent Aiolos degradation was calculated for each compound-treated sample using the following equation: […]
DC50 is the compound concentration degrading 50% of Aiolos. Dmax is the maximum percent Aiolos degradation in the assay.

[2] = test system: Experimental autoimmune encephalomyelitis (EAE); experiment: Experimental autoimmune encephalomyelitis (EAE) model; assay type: in vivo, C57BL/6 mice; settings: EAE, 30 mg/kg, spinal cords collected on day 22
Protocol: EAE was induced in C57BL/6 mice by immunization with an emulsion of MOG1-125 in complete Freund's adjuvant (CFA), followed by administration of pertussis toxin in PBS, first on the day of immunization (Day 0) and then again the following day (Day 1).
Dosing of all mice started on Day −1 and continued through Day 22. Fingolimod (FTY720, Gilenya) is the a commonly used positive control in this model.
Statistical significance was determined between vehicle control and treated groups based on the end clinical scores using Wilcoxon's non-parametric test.
Statistical analysis: Demyelination (anti-MBP) with Wilcoxon's non-parametric test; inflammatory foci or apoptosis with two-tailed Student's t-test.

SMILES | Dmax [1] [%] | DC50 [1] [nM] | further results
CN1CCN([C@@H]2CCCN(c3cnc(C(N)=O)c(Nc4ccc(C5CCN(CC6CCN(c7cnc(C(=O)NC8CCC(=O)NC8=O)nc7)CC6)CC5)cc4)n3)C2)C1=O (mixture of isomers) [Compound 3, 5-(4-((4-(4-((3-carbamoyl-6-((R)-3-(3-methyl-2-oxoimidazolidin-1-yl)piperidin-1-yl)pyrazin-2-yl)amino)phenyl)piperidin-1-yl)methyl)piperidin-1-yl)-N—((RS)-2,6-dioxopiperidin-3-yl)pyrimidine-2-carboxamide] | 3.2 |  | 
NC(=O)c1ncc(N2CCCCC2)nc1Nc1ccc2c(c1)CCN(CC1CCN(c3ccc(C(=O)NC4CCC(=O)NC4=O)nc3)CC1)C2 (racemic) [Compound 4, rac-3-[(2-{[1-(6-{[(3R)-2,6-dioxopiperidin-3-yl]carbamoyl}pyridin-3-yl)piperidin-4-yl]methyl}-3,4-dihydro-1H-isoquinolin-6-yl)amino]-5-(piperidin-1-yl)pyrazine-2-carboxamide] | 28.3 | 344 | 
CN1CCN([C@@H]2CCCN(c3cnc(C(N)=O)c(Nc4ccc(C5CCN(CC6CCN(c7ccc(C(=O)NC8CCC(=O)NC8=O)cc7)CC6)CC5)cc4)n3)C2)C1=O (mixture of isomers) [Compound 5, 3-((4-(1-((1-(4-(((RS)-2,6-dioxopiperidin-3-yl)carbamoyl)phenyl)piperidin-4-yl)methyl)piperidin-4-yl)phenyl)amino)-5-((R)-3-(3-methyl-2-oxoimidazolidin-1-yl)piperidin-1-yl)pyrazine-2-carboxamide] | 10.1 | 468 | 
CN1CCN([C@@H]2CCCN(c3cnc(C(N)=O)c(Nc4ccc(C5CCN(C[C@@H]6CCN(c7ccc8c(c7)n(C)c(=O)n8C7CCC(=O)NC7=O)C6)CC5)cc4)n3)C2)C1=O (mixture of isomers) [Compound 8, 3-((4-(1 (((3 S)-1-(1-(2,6-dioxopiperidin-3-yl)-3-methyl-2-oxo-2,3-dihydro-1H-benzo[d]imidazol-5-yl)pyrrolidin-3-yl)methyl)piperidin-4-yl)phenyl)amino)-5-((R)-3-(3-methyl-2-oxoimidazolidin-1-yl)piperidin-1-yl)pyrazine-2-carboxamide] | 1.0 |  | 
CN1CCN([C@@H]2CCCN(c3cnc(C(N)=O)c(Nc4ccc(C5CCN(C[C@H]6CC[C@@H](Nc7cccc8c7C(=O)N([C@@H]7CCC(=O)NC7=O)C8=O)CC6)CC5)cc4)n3)C2)C1=O (racemic) [Compound 9, 5-[(3R)-3-(3-methyl-2-oxoimidazolidin-1-yl)piperidin-1-yl]-3-{[4-(1-{[(1 s,4s)-4-{[2-(2,6-dioxopiperidin-3-yl)-1,3-dioxoisoindol-4-yl]amino}cyclohexyl]methyl}piperidin-4-yl)phenyl]amino}pyrazine-2-carboxamide] | 30.8 | 96.6 | 
CN1CCN([C@@H]2CCCN(c3cnc(C(N)=O)c(Nc4ccc(C5CCN(CC6CCN(c7ccc(C(=O)N[C@@H]8CCC(=O)NC8=O)nc7)CC6)CC5)cc4)n3)C2)C1=O [Compound 2] | 17.9 | 596 | 
Cn1c(=O)n([C@@H]2CCC(=O)NC2=O)c2ccc(N3CC[C@H](CN4CCC(c5ccc(Nc6nc(N7CCCCC7)cnc6C(N)=O)cc5)CC4)C3)cc21 [Compound 6] | 1.1 |  | 
Cn1c(=O)n([C@@H]2CCC(=O)NC2=O)c2ccc(N3CC[C@@H](CN4CCC(c5ccc(Nc6nc(N7CCCCC7)cnc6C(N)=O)cc5)CC4)C3)cc21 [Compound 7] | 4.6 |  | 
NC(=O)c1ncc(N2CCCCC2)nc1Nc1ccc(C2CCN(CC3CCN(c4ccc(CC5CCC(=O)NC5=O)cn4)CC3)CC2)cc1 (centres unmarked) [Compound 10] | 3.2 |  | 
CN1CCN([C@@H]2CCCN(c3cnc(C(N)=O)c(Nc4ccc(C5CCN(CC6CCN(c7ncc(C(=O)NC8CCC(=O)NC8=O)o7)CC6)CC5)cc4)n3)C2)C1=O (some centres unmarked) [Compound 11] | 1.9 |  | 
CN1CCN([C@@H]2CCCN(c3cnc(C(N)=O)c(Nc4ccc(C5CCN(CC6CCN(c7ccc8c(c7)n(C)c(=O)n8C7CCC(=O)NC7=O)CC6)CC5)cc4)n3)C2)C1=O (some centres unmarked) [Compound 12] | 5.3 |  | 
CN1CCN([C@@H]2CCCN(c3cnc(C(N)=O)c(Nc4ccc(C5CCN(CC6CCN(c7ccc(OC8CCC(=O)NC8=O)cn7)CC6)CC5)cc4)n3)C2)C1=O (some centres unmarked) [Compound 13] | 4.9 | 2.89 | 
NC(=O)c1ncc(N2CCCCC2)nc1Nc1ccc(N2CCC3(CCN(Cc4ccc5c(c4)C(=O)N(C4CCC(=O)NC4=O)C5=O)CC3)CC2)cc1 (centres unmarked) [Compound 14] | 30.4 | 37.6 | 
CN1CCN([C@H]2CCCN(c3cnc(C(N)=O)c(Nc4ccc(C5CCN(CC6CCN(c7ccc(C(=O)NC8CCC(=O)NC8=O)nc7)CC6)CC5)cc4)n3)C2)C1=O (some centres unmarked) [Compound 15] | 27.4 | 345 | 
CN1CCN([C@@H]2CCCN(c3cnc(C(N)=O)c(Nc4ccc(C5(C)CCN(C6CN(Cc7ccc8c(c7)C(=O)N(C7CCC(=O)NC7=O)C8=O)C6)CC5)cc4)n3)C2)C1=O (some centres unmarked) [Compound 16] | 23.6 |  | 
CN1CCN([C@H]2CCCN(c3cnc(C(N)=O)c(Nc4ccc(N5CCN(CC#Cc6cccc7c6CN(C6CCC(=O)NC6=O)C7=O)CC5)cc4)n3)C2)C1=O (some centres unmarked) [Compound 17] | 15.1 |  | 
CN1CCN([C@@H]2CCCN(c3cnc(C(N)=O)c(Nc4ccc(N5CCC6(CCCN(c7ccc8c(c7)C(=O)N(C7CCC(=O)NC7=O)C8=O)C6)CC5)cc4)n3)C2)C1=O (some centres unmarked) [Compound 18] | 28.2 | 2650 | 
CN1CCN([C@@H]2CCCN(c3cnc(C(N)=O)c(Nc4ccc(N5CCN(C(=O)CCOCCCc6ccc7c(c6)C(=O)N(C6CCC(=O)NC6=O)C7)CC5)cc4)n3)C2)C1=O (some centres unmarked) [Compound 19] | 9.1 |  | 
C=CC(=O)N1CCC[C@@H](n2nc(-c3ccc(Oc4ccccc4)cc3)c3c(N)ncnc32)C1 [Ibrutinib, reference compound] |  |  | Apoptotic cells/section +/− SD [2]: 0.4 +/− 0.7; Inflammatory foci/section +/− SD [2]: 1.0 +/− 1.4; Demyelination score +/− SD ([2]; anti-MBP): 0.4 +/− 0.6
